From US10577373B2, “TYK2 inhibitors and uses thereof” (Nimbus Lakshmi, Inc., priority 2017, dated 2020)
Like-named read-outs stand apart in the source and are kept apart here.

How the values were obtained:
[1] = system: IL-12 induced STAT4 phophorylation mediated by Tyk2/JAK2 (heterodimeric complex); assay: IL-12 Induced pSTAT4 in Human PBMC; format: cell-based; settings: 1.7 ng/mL IL-12
Description: The IL-12 Induced pSTAT4 assay evaluates the inhibition of IL-12 induced STAT4 phophorylation mediated by Tyk2/JAK2 (heterodimeric complex).

[2] = system: GM-CSF induced STAT5 phosphorylation mediated by the JAK2/JAK2 homdimeric complex; assay: GM-CSF Induced pSTAT5 in Human PBMC
Description: Human PBMC are isolated from buffy coat and are stored frozen for assays as needed.

[3] = Homo sapiens, PBMC, 20 min, read-out: PBMC_GMCSF_pSTAT5 IC50, human PBMC, GM-CSF 5 ng/mL for 20 minutes, pSTAT5
[4] = read-out: PBMC_GMCSF_pSTAT5 IC50, human PBMC, GM-CSF 5 ng/mL for 20 minutes, pSTAT5

Compound	IC50 [1] [µM]	IC50 [2, 3] [µM]	IC50 [2, 4] [µM]	IC50 ([2]; Homo sapiens, PBMC, 20 min, read-out: PBMC_GMCSF_pSTAT5 IC50) [µM]
CNc1cc(Nc2cccc([C@@H]3CCCOC3)n2)nc2c(C(=O)N[C@H]3C[C@H]3F)cnn12 [I-562]	< 0.1	> 50		
CNc1cc(Nc2cc(Cl)cn(-c3ccn(C4CC4)n3)c2=O)nc2c(C(=O)N[C@H]3C[C@H]3F)cnn12 [I-332]	< 0.1	> 2.5		
CNc1cc(Nc2cccnc2OCCOC)nc2c(C(=O)NC3CCC3)cnn12 [I-219]	< 0.1	> 12.5		
CNc1cc(Nc2cccc(N3CCC34COC4)n2)nc2c(C(=O)N[C@H]3C[C@H]3F)cnn12 [I-709]	< 0.1	> 50		
CNc1cc(Nc2cccn(-c3cccc(C(C)(C)O)n3)c2=O)nc2c(C(=O)NC3CCC3)cnn12 [I-156]	< 0.1	> 12.5		
[2H]C([2H])([2H])Oc1ncccc1Nc1cc(NC)n2ncc(C(=O)N[C@H]3CC[C@@H]3O)c2n1 [I-373]	< 0.1	> 50		
CNc1cc(Nc2cccn(-c3cnn(CC4CCOCC4)c3)c2=O)nc2c(C(=O)NC3CC3)cnn12 [I-406]	0.1 to 0.5	> 12.5		
CNc1cc(-c2cn(CCN3CCCCC3)c3ncccc23)nc2c(C(=O)N[C@H]3C[C@H]3F)cnn12 [I-585]	< 0.1	> 12.5		
CNc1cc(Nc2cccc3ocnc23)nc2c(C(=O)N[C@@H]3CC[C@H]3O)cnn12 (racemic) [I-756, 5-(benzo[d]oxazol-4-ylamino)-N-(2-hydroxycyclobutyl)-7-(methylamino) pyrazolo[1,5-a]pyrimidine-3-carboxamide]	0.1 to 0.5	> 50		
CNc1cc(Nc2cccn(-c3ccn(C)n3)c2=O)nc2c(C(=O)NC3CC3)cnn12 [I-294]	< 0.1	> 12.5		
CNc1cc(Nc2cccnc2OC2CCC2)nc2c(C(=O)N[C@H]3C[C@H]3F)cnn12 [I-170]	< 0.1	> 50		
CNc1cc(Nc2cccn(-c3nc(C)co3)c2=O)nc2c(C(=O)N[C@H]3C[C@H]3F)cnn12 [I-369]	< 0.1	> 50		
CNc1cc(Nc2cccnc2OC(C)C)nc2c(C(N)=O)cnn12 [I-72]	0.1 to 0.5	> 12.5		
CNc1cc(Nc2cccn(-c3ncco3)c2=O)nc2c(C(=O)N[C@H]3C[C@H]3F)cnn12 [I-716]	< 0.1	> 2.5		
CNc1cc(Nc2cccn([C@@H]3CCC[C@H](OC)C3)c2=O)nc2c(C(=O)NC3CC3)cnn12 [I-621]	< 0.1	> 50		
CNc1cc(Nc2cccn(-c3cncc(C)c3)c2=O)nc2c(C(=O)NC3CCC3)cnn12 [I-303]	< 0.1	> 50		
CNc1cc(Nc2cc(Cl)cn(C3CCCN(C)C3)c2=O)nc2c(C(=O)NC3CC3)cnn12 (stereo not drawn) [I-740]	< 0.1	> 2.5		
CNc1cc(Nc2cc(Cl)cn(-c3ccc(C4CC4)nn3)c2=O)nc2c(C(=O)N[C@H]3C[C@H]3F)cnn12 [I-334]	< 0.1	> 50		
CCn1cc(Cl)cc(Nc2cc(NC)n3ncc(C(N)=O)c3n2)c1=O [I-35]	< 0.1	> 0.3		
CNc1cc(Nc2cccn(C3CC4(COC4)C3)c2=O)nc2c(C(=O)N[C@@H]3C[C@@H]3F)cnn12 [I-551, N-((1R,2S)-2-fluorocyclopropyl)-7-(methylamino)-5-((2-oxo-1-(2-oxaspiro[3.3]heptan-6-yl)-1,2-dihydropyridin-3-yl)amino)pyrazolo[1,5-a]pyrimidine-3-carboxamide]	< 0.1	> 2.5		
CNc1cc(Nc2cccn(C3CCCCC3)c2=O)nc2c(C(=O)N[C@@H]3CC[C@H]3O)cnn12 [I-1002]	< 0.1		> 50	
CNc1cc(Nc2cccn(-c3nccs3)c2=O)nc2c(C(=O)N[C@H]3C[C@H]3F)cnn12 [I-243]	< 0.1	> 2.5		
CNc1cc(Nc2cccn(-c3cc(C)nn3C)c2=O)nc2c(C(=O)NC3CCC3)cnn12 [I-342]	< 0.1	> 12.5		
CNc1cc(-c2cn(CCN3CCCCC3)c3ncccc23)nc2c(C(=O)N[C@@H]3CC[C@H]3O)cnn12 [I-837]	< 0.1	> 12.5		
CNc1cc(-c2cn(C(C)C)c3ncccc23)nc2c(C(=O)N[C@@H]3CC[C@@H]3O)cnn12 [I-578]	< 0.1	> 50		
CNc1cc(Nc2cc(F)cn(-c3cc(C)n(C)n3)c2=O)nc2c(C(=O)N[C@H]3C[C@H]3F)cnn12 [I-385]	< 0.1	> 2.5		

Compound	IC50 [1] [µM]	IC50 [2, 3] [µM]	IC50 [2, 4] [µM]	IC50 ([2]; Homo sapiens, PBMC, 20 min, read-out: PBMC_GMCSF_pSTAT5 IC50) [µM]
CNc1cc(Nc2cccn(-c3cc(C)on3)c2=O)nc2c(C(=O)NC3CCC3)cnn12 [I-160]	< 0.1	> 12.5		
CNc1cc(Nc2cccn(-c3ccc(F)cn3)c2=O)nc2c(C(=O)N[C@H]3C[C@H]3F)cnn12 [I-115]	< 0.1	> 12.5		
CNc1cc(Nc2cccc(C)c2Cl)nc2c(C(N)=O)cnn12 [I-14]	< 0.1	> 50		
CNc1cc(Nc2cccc3ocnc23)nc2c(C(=O)N[C@H]3C[C@H]3F)cnn12 [I-592]	< 0.1	> 12.5		
CNc1cc(Nc2cccn(C3CCN(CC(F)F)CC3)c2=O)nc2c(C(=O)NC3CCC3)cnn12 [I-192]	< 0.1	> 12.5		
CNc1cc(Nc2cccn(CC3CCCCO3)c2=O)nc2c(C(=O)N[C@H]3C[C@H]3F)cnn12 (stereo partly drawn) [I-365]	< 0.1	> 50		
CNc1cc(Nc2cccnc2OC(F)F)nc2c(C(=O)N[C@H]3C[C@H]3F)cnn12 [I-153]	< 0.1	> 12.5		
CNc1cc(Nc2cc(Cl)cn([C@@H]3CCCOC3)c2=O)nc2c(C(=O)NC3CC3)cnn12 [I-783]	< 0.1	> 50		
[2H]C([2H])([2H])Oc1ncccc1Nc1cc(NC)n2ncc(C(=O)N[C@H]3C[C@H]3F)c2n1 [I-177]	< 0.1	> 12.5		
CNc1cc(Nc2cccc(N3CCCC3=O)n2)nc2c(C(=O)NC3CCC3)cnn12 [I-94]	< 0.1	> 50		
CNc1cc(Nc2cccn(C3CCOCC3)c2=O)nc2c(C(=O)NC3CC3)cnn12 [I-329]	< 0.1	> 2.5		
CNc1cc(Nc2cccc3ocnc23)nc2c(C(=O)N[C@@H]3CC[C@@H]3O)cnn12 [I-770]	< 0.1		> 2.5	
CNc1cc(Nc2cccn([C@H]3CC[C@@H](N4CCOCC4)CC3)c2=O)nc2c(C(=O)NC3CCC3)cnn12 [I-182]	< 0.1	> 2.5		
CNc1cc(Nc2cc(Cl)cn(-c3ccn(C)n3)c2=O)nc2c(C(=O)NC3CC3)cnn12 [I-310]	< 0.1	> 2.5		
CNc1cc(Nc2cc(F)cnc2OC2CC2)nc2c(C(=O)NC3CC3)cnn12 [I-274]	< 0.1	> 12.5		
[2H]C([2H])([2H])Oc1ncccc1Nc1cc(NC)n2ncc(C(=O)N[C@@H]3CC[C@H]3O)c2n1 [I-410]	< 0.1	> 12.5		
CNc1cc(Nc2cccn([C@H]3CC[C@H](OC)CC3)c2=O)nc2c(C(=O)N[C@@H]3CC[C@@H]3O)cnn12 [I-560]	< 0.1	> 2.5		
CNc1cc(Nc2cccnc2OC(F)F)nc2c(C(=O)NC3CCC3)cnn12 [I-151]	< 0.1	> 50		
CNc1cc(Nc2cccn([C@H]3CC[C@H](OC)CC3)c2=O)nc2c(C(=O)NC3CC3)cnn12 [I-343]	< 0.1	> 12.5		
CNc1cc(-c2cn(C3CC3)c3ncccc23)nc2c(C(=O)NC3CC3)cnn12 [I-960, N-cyclopropyl-5-(1-cyclopropyl-1H-pyrrolo[2,3-b]pyridin-3-yl)-7-(methylamino)pyrazolo[1,5-a]pyrimidine-3-carboxamide]	< 0.1	> 50		
CNc1cc(Nc2cccc([C@H]3CCCOC3)n2)nc2c(C(=O)N[C@H]3C[C@H]3F)cnn12 [I-563]	< 0.1	> 50		
CNc1cc(Nc2cccnc2OC2CC2)nc2c(C(=O)NCC(C)CO)cnn12 (stereo not drawn) [I-435]	0.1 to 0.5	> 50		
CNc1cc(Nc2cccn(C3CCCCC3)c2=O)nc2c(C(=O)N[C@H]3C[C@H]3F)cnn12 [I-305]	< 0.1	> 12.5		
CNc1cc(Nc2cccnc2OC)nc2c(C(=O)NCC3(CO)CC3)cnn12 [I-425]	< 0.1			> 50
CNc1cc(-c2c[nH]c3c(C)cc(C)cc23)nc2c(C(N)=O)cnn12 [I-36, 5-(5,7-dimethyl-1H-indol-3-yl)-7-(methylamino)pyrazolo[1,5-a]pyrimidine-3-carboxamide]	< 0.1	> 12.5		
